Data on ten compounds can be found in US5116858A, “4-imidazoline derivatives” (Mitsubishi Kasei Corporation, priority 1989, dated 1992).

Data set [1] relates to peroxidized lipid in rat brain homogenate. Briefly: Lipoperoxidation inhibitory activity in brain homogenate (TBA method). The conditions noted are these: 30 minutes at 37° C., final conc. 0.3-100 μM, read-out: Anti-lipoperoxidation Activity IC50. It counts as biochemical, Wistar male rats. The procedure:
Brain homogenate was prepared using Wistar male rats in accordance with the following procedure. […] A polyethylene tube was inserted into the aorta through the left ventricle, and fixed. Brain perfusion was conducted using ice-cooled 50 mM phosphate buffered saline (PBS), pH 7.4, through the tube, and whole brain was extracted. After removal of the cerebellum, the cerebrum was weighed while wet and homogenated by a Teflon homogenizer under ice-cooling, after addition of nine-fold by weight of PBS. The resultant homogenate was centrifuged at 4° C. (2200 r.p.m., 10 minutes), and an aliquot of the supernatant (0.3 ml) was placed in a light-resistant test tube with ground stopper and used for the following test.
To the brain homogenate obtained above were added PBS (0.6 ml) and an ethanol solution (10 μl) containing a predetermined amount of a test compound. Thus, each of the ethanol solutions was prepared so that the final concentration of the compound was 0.3-100 μM. The mixture was allowed to warm for 30 minutes at 37° C. (external bath temperature). […] (2600 r.p.m., 10 minutes). The resultant supernatant was used in the following quantitative analysis.
The aqueous mixture was heated in a boiling-water bath for 60 minutes and cooled rapidly. Distilled water (1.0 ml) and a mixture of pyridine and butanol (1:15) (5.0 ml) were added to the cooled mixture, and the latter was shaken for 30 seconds and centrifuged (3000 r.p.m., 10 minutes). The supernatant was used as a test sample for quantitative analysis of peroxidized lipid as mentioned below.

Data set [2] relates to mice. Briefly: Passive avoidance response test (memory-improving activity, cycloheximide-treated mice). It is filed as in vivo. The conditions noted are these: Mus musculus; oral, 15 mice per group, cycloheximide 120 mg/kg s.c., latent time; read-out: Memory-Improving Activity, Minimum Effective Dose. As for the experimental part:
Passive avoidance response test was conducted in mice (15 animals per group) using light-dark differential apparatus of step-down type. The apparatus consisted of a dark room made of black and rigid vinylidene chloride resin [30 cm (depth)×30 cm (width)×31 cm (height)] and a light room, as an adjacent room, made of transparent rigid vinylidene chloride resin. The floor of the light room was set 2 cm higher than the grid surface of the dark room (step down type), and there was a guillotine door between the rooms. The animals were placed in the apparatus and acclimatized before test, and latent time for moving from the light room to the dark room was determined.
The acclimatized animals subcutaneously received 120 mg/kg of cycloheximide (Sigma) dissolved in physiological saline. After 30 minutes of the administration, the animals were placed in the light room. Immediatly after the movement of the animals to the dark room, electric current was applied on the grid (0.5 mA, 3 seconds), which gave the animals "aquired behavior". After 24 hours of the establishment of the aquired behavior, a test compound suspended in 1% tragacanth was administered orally to the animals, which were then returned to the light room. Control animals received only 1% tragacanth. The latent time until an individual animal started to move to the dark room was determined.

Data set [3] can be described thus: Acute toxicity, oral. The conditions noted are these: rat, in vivo, SD rats, seven-day observation. As for the experimental part: Compounds of the invention suspended in 1% tragacanth was orally administered to SD rats (both male and female) and mortality (LD50) was determined after seven-day observation.
Data set [4] deals with cytotoxicities caused by active oxygen species. The conditions noted are these: background; cited from earlier work.
For data set [5] the following is noted: background, Iyakuhin Kenkyu 16, 1 (1985); cited from earlier work.

Bounds are passed on as bounds.

Take `CCCCc1ccc(-c2c(C)[nH]c(=O)n2C)cc1` [Compound No. 2, 5-(4'-n-Butylphenyl)-1,4-dimethyl-4-imidazolin-2-one]: in data set [1], the IC50 – broadly, the concentration at which inhibition is half-maximal – was 10.7 µM. The minimal effective dose in data set [2] came to 0.1 mg/kg. The LD50 (in general, the dose at which mortality reaches 50%) at 168 h in data set [3] was > 1000 mg/kg.

As for `CCCCc1ccc(-c2c(C)[nH]c(=O)n2Cc2ccccc2)cc1` [Compound No. 137, 1-Benzyl-5-(4'-n-butylphenyl)-4-methyl-4-imidazolin-2-one], the IC50 in data set [1] was determined as 12.4 µM. Further, the minimal effective dose in data set [2] was 0.1 mg/kg. Moreover, the LD50 at 168 h in data set [3] is > 1000 mg/kg.

Regarding `O=C1O[C@H]([C@@H](O)CO)C(O)=C1O` [Vitamin C], the “activity as inhibitory agent for cytotoxicities (in words)” value in data set [4] is “very limited in their activities”.

For `Cc1[nH]c(=O)n(C)c1-c1ccc(C2CCCCC2)cc1` [compound 8], the IC50 in data set [1] was 10 µM. Besides, the minimal effective dose in data set [2] is 0.1 mg/kg. Besides, in data set [3], the LD50 at 168 h was > 1000 mg/kg.

For the compound `Cc1[nH]c(=O)n(C)c1-c1ccc(-c2ccccc2)cc1` [compound 16], the IC50 in data set [1] turned out to be 6.3 µM. Besides, in data set [2], the minimal effective dose is 0.3 mg/kg. Moreover, the LD50 at 168 h in data set [3] was > 1000 mg/kg.

In the case of `CCCCOc1ccc(-c2c(C)[nH]c(=O)n2C2CCCCC2)cc1` [compound 111], in data set [1], the IC50 came out at 13.9 µM. Also, in data set [2], the minimal effective dose was found to be 0.1 mg/kg.

For the compound `Cc1[nH]c(=O)n(Cc2ccccc2)c1-c1ccc(-c2ccccc2)cc1` [compound 141], the IC50 in data set [1] was determined as 7.9 µM. Further, in data set [2], the minimal effective dose worked out at 0.1 mg/kg.

In the case of `CCCCOc1ccc(-c2c(C)[nH]c(=O)n2Cc2ccccc2)cc1` [compound 142], the IC50 in data set [1] is 12.8 µM. In addition, the minimal effective dose in data set [2] is 0.3 mg/kg.

Turning to `CCN(CC)Cc1nccn1-c1ccc([N+](=O)[O-])cc1C(=O)c1ccccc1Cl` [nizofenone], the “inhibitory action on CNS (in words)” value in data set [5] is reported as “strong inhibitory action on CNS”.

With Vitamin E, the “activity as inhibitory agent for cytotoxicities (in words)” value in data set [4] is “very limited in their activities”.
